Source: PubChem BioAssay (NCI)
Values joined by “and” are separate entries in the source; they are usually repeats but may differ in a detail not shown here. Equal values may be shown once.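 How tested: cells in 96-well plates exposed to compound for 48 hours at five concentrations. GI50 = concentration required for 50% inhibition of growth. Definition used: TGI = concentration required for complete inhibition of growth.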

Tests used:
Assay in all cases: NCI-60 cell line screen, 48 h
A549 NSCLC = test system: A549 NSCLC
HCC-2998 colon = test system: HCC-2998 colon
HCT-15 colon = test system: HCT-15 colon
K-562 leukemia = test system: K-562 leukemia
LOX IMVI melanoma = test system: LOX IMVI melanoma
MDA-MB-435 = test system: MDA-MB-435
NCI-H23 lung = test system: NCI-H23 lung
RPMI-8226 leukemia = test system: RPMI-8226 leukemia
SNB-75 CNS = test system: SNB-75 CNS
SR leukemia = test system: SR leukemia

For Cc1cc(Oc2ccc3nc(COc4ccc(CC5SC(=O)NC5=O)cc4)n(C)c3c2)cc(C)c1N (stereo not drawn), the GI50 (A549 NSCLC) was 29.5 µM, the TGI (A549 NSCLC) was > 87.7 µM and the GI50 (HCC-2998 colon) was 54.9 µM. For the same molecule, the TGI (HCC-2998 colon) was > 100 µM, the GI50 (HCT-15 colon) was 29.1 µM and the TGI (HCT-15 colon) was > 87.8 µM. For the same molecule, the GI50 (K-562 leukemia) was 35.4 µM, the TGI (K-562 leukemia) was > 100 µM and the GI50 (LOX IMVI melanoma) was 17.2 µM. The TGI (LOX IMVI melanoma) was > 71.3 µM, the GI50 (MDA-MB-435) was 27.4 µM and the TGI (MDA-MB-435) was > 100 µM. For the same molecule, the GI50 (NCI-H23 lung) was 24.2 µM, the TGI (NCI-H23 lung) was > 72.2 µM and the GI50 (RPMI-8226 leukemia) was 9.73 µM. For the same molecule, the TGI (RPMI-8226 leukemia) was 45.4 µM, the GI50 (SNB-75 CNS) was 27.6 µM and the TGI (SNB-75 CNS) was > 72.7 µM. The GI50 (SR leukemia) was 31.7 µM and the TGI (SR leukemia) was > 100 µM.

For Cc1cc(O)cc(C)c1/C=C/c1cncc(-c2nn[nH]n2)c1, the GI50 (A549 NSCLC) was > 25 µM, the TGI (A549 NSCLC) was > 25 µM and the GI50 (HCC-2998 colon) was > 25 µM. For the same molecule, the TGI (HCC-2998 colon) was > 25 µM, the GI50 (HCT-15 colon) was > 25 µM and the TGI (HCT-15 colon) was > 25 µM. The GI50 (K-562 leukemia) was > 25 µM, the TGI (K-562 leukemia) was > 25 µM and the GI50 (LOX IMVI melanoma) was > 25 µM. For the same molecule, the TGI (LOX IMVI melanoma) was > 25 µM, the GI50 (MDA-MB-435) was > 25 µM and the TGI (MDA-MB-435) was > 25 µM. For the same molecule, the GI50 (NCI-H23 lung) was > 25 µM, the TGI (NCI-H23 lung) was > 25 µM and the GI50 (RPMI-8226 leukemia) was > 25 µM. The TGI (RPMI-8226 leukemia) was > 25 µM, the GI50 (SNB-75 CNS) was > 25 µM and the TGI (SNB-75 CNS) was > 25 µM. The GI50 (SR leukemia) was > 25 µM and the TGI (SR leukemia) was > 25 µM.

With CCc1cc2c(cc1N1CCC(N3CCOCC3)CC1)C(C)(C)c1[nH]c3cc(C#N)ccc3c1C2=O the GI50 (A549 NSCLC) was 1.36 µM and 1.51 µM and 1.31 µM, the TGI (A549 NSCLC) was 3.05 µM and 3.88 µM and 3.67 µM and the GI50 (HCC-2998 colon) was 4.33 µM and 3.73 µM. For the same molecule, the TGI (HCC-2998 colon) was > 43.7 µM and 17.8 µM and > 10 µM, the GI50 (HCT-15 colon) was 2.02 µM and 1.35 µM and 1.14 µM and the TGI (HCT-15 colon) was > 33.4 µM and 10.6 µM and 3.75 µM. The GI50 (K-562 leukemia) was 3.76 µM and 2.12 µM and 1.94 µM, the TGI (K-562 leukemia) was > 41.9 µM and 13.9 µM and > 10 µM and the GI50 (LOX IMVI melanoma) was 1.63 µM and 1.73 µM and 1.52 µM. For the same molecule, the TGI (LOX IMVI melanoma) was 6.38 µM and 5.47 µM and 4.19 µM, the GI50 (MDA-MB-435) was 1.46 µM and 1.34 µM and 2.1 µM and the TGI (MDA-MB-435) was 5.97 µM and 5.53 µM and > 10 µM. For the same molecule, the GI50 (NCI-H23 lung) was 2.8 µM and 3.45 µM and 5.94 µM, the TGI (NCI-H23 lung) was 38.6 µM and 20 µM and > 10 µM and the GI50 (RPMI-8226 leukemia) was 0.549 µM and 0.415 µM and 0.497 µM. For the same molecule, the TGI (RPMI-8226 leukemia) was 8.9 µM and > 10 µM, the GI50 (SNB-75 CNS) was 1.03 µM and 1.25 µM and 1.38 µM and the TGI (SNB-75 CNS) was 2.63 µM and 2.73 µM and 2.9 µM. For the same molecule, the GI50 (SR leukemia) was < 0.0149 µM and 0.0165 µM and 0.0525 µM.

Molecule C[C@H]1[C@H]2[C@H]3CC[C@@H]4[C@@]5(C)C/C(=C/c6cccnc6)C(=O)C(C)(C)[C@@H]5CC[C@@]4(C)[C@]3(C)CC[C@]23CO[C@]1(C)[C@@H](C(=O)/C=C\c1cccnc1)C3 has a GI50 (A549 NSCLC) of 1.22 µM, a TGI (A549 NSCLC) of 3.29 µM and a GI50 (HCC-2998 colon) of 0.868 µM. It also gave a TGI (HCC-2998 colon) of 1.67 µM, a GI50 (HCT-15 colon) of 0.982 µM and a TGI (HCT-15 colon) of 2.56 µM. For the same molecule, the GI50 (K-562 leukemia) was 0.151 µM, the TGI (K-562 leukemia) was > 50 µM and the GI50 (LOX IMVI melanoma) was 0.783 µM. It also gave a TGI (LOX IMVI melanoma) of 1.57 µM, a GI50 (MDA-MB-435) of 1.17 µM and a TGI (MDA-MB-435) of 2.93 µM. The GI50 (NCI-H23 lung) was 1.03 µM, the TGI (NCI-H23 lung) was 2.48 µM and the GI50 (RPMI-8226 leukemia) was 0.255 µM. For the same molecule, the TGI (RPMI-8226 leukemia) was 2.26 µM, the GI50 (SNB-75 CNS) was 0.99 µM and the TGI (SNB-75 CNS) was 3.69 µM. It also gave a GI50 (SR leukemia) of 0.371 µM.

CCN(CC)CCNc1cc(-c2cccc(OC(F)(F)F)c2)nc2ccc(N3CCCC3)cc12 was tested, and the GI50 (A549 NSCLC) was 1.71 µM and 1.73 µM and 2.55 µM, the TGI (A549 NSCLC) was 3.35 µM and 3.29 µM and 7.3 µM and the GI50 (HCC-2998 colon) was 1.34 µM and 1.28 µM and 1.9 µM. The TGI (HCC-2998 colon) was 2.72 µM and 2.6 µM and 4.06 µM, the GI50 (HCT-15 colon) was 1.46 µM and 1.38 µM and 1.73 µM and the TGI (HCT-15 colon) was 3.17 µM and 2.84 µM and 3.71 µM. For the same molecule, the GI50 (K-562 leukemia) was 1.36 µM and 1.8 µM and 2.18 µM, the TGI (K-562 leukemia) was 6.14 µM and 5.09 µM and 5.01 µM and the GI50 (LOX IMVI melanoma) was 1.56 µM and 1.39 µM and 1.73 µM. The TGI (LOX IMVI melanoma) was 2.96 µM and 2.73 µM and 3.19 µM, the GI50 (MDA-MB-435) was 1.47 µM and 1.43 µM and 1.74 µM and the TGI (MDA-MB-435) was 2.83 µM and 2.85 µM and 3.3 µM. For the same molecule, the GI50 (NCI-H23 lung) was 1.82 µM and 1.87 µM and 1.89 µM, the TGI (NCI-H23 lung) was 3.65 µM and 3.72 µM and the GI50 (RPMI-8226 leukemia) was 1.35 µM and 1.6 µM and 1.69 µM. The TGI (RPMI-8226 leukemia) was 3.54 µM and 3.94 µM and 4.22 µM, the GI50 (SNB-75 CNS) was 1.79 µM and 1.74 µM and the TGI (SNB-75 CNS) was 4.29 µM and 5.78 µM. The GI50 (SR leukemia) was 0.418 µM and 0.462 µM and the TGI (SR leukemia) was 2.12 µM and 2.26 µM.

With O=C(NN=C1CCCCC1)c1[nH]c2ccc(F)cc2c1-c1ccccc1 the GI50 (A549 NSCLC) was 42.9 µM, the TGI (A549 NSCLC) was > 100 µM and the GI50 (HCC-2998 colon) was 17.4 µM. The TGI (HCC-2998 colon) was 36.4 µM, the GI50 (HCT-15 colon) was 15.6 µM and the TGI (HCT-15 colon) was 50.9 µM. For the same molecule, the GI50 (K-562 leukemia) was 5.91 µM, the TGI (K-562 leukemia) was 26.6 µM and the GI50 (LOX IMVI melanoma) was 25.2 µM. The TGI (LOX IMVI melanoma) was > 100 µM, the GI50 (MDA-MB-435) was 35.3 µM and the TGI (MDA-MB-435) was > 100 µM. For the same molecule, the GI50 (NCI-H23 lung) was 33.5 µM, the TGI (NCI-H23 lung) was > 100 µM and the GI50 (RPMI-8226 leukemia) was 40.5 µM. For the same molecule, the TGI (RPMI-8226 leukemia) was > 100 µM, the GI50 (SNB-75 CNS) was 19.6 µM and the TGI (SNB-75 CNS) was 58.1 µM. It also gave a GI50 (SR leukemia) of 12.9 µM and a TGI (SR leukemia) of 41.9 µM.
